Measurements from US12662489B2 (Sitryx Therapeutics Limited, priority 2023, dated 2026).

Key:
[1] = biological target: T1, MTHFD1 recombinant human enzyme (Homo sapiens, UniProt P11586); assay: MTHFD1 inhibition assay (NAD(P)H-Glo luminescence); conditions: MTHFD1 IC50, recombinant human enzyme 200 nM, NADP, band
T1 sequence (P11586 2-291 limits assumed): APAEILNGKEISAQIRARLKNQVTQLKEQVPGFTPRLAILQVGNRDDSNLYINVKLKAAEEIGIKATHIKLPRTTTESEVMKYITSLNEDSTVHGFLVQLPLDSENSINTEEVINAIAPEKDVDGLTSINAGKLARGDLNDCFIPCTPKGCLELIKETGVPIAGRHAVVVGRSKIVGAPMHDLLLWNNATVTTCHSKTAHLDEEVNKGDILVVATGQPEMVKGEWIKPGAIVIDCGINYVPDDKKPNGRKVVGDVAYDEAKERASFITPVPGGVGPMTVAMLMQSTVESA

[2] = biological target: T2, MTHFD2 recombinant human enzyme (Homo sapiens, UniProt P13995); assay: MTHFD2 inhibition assay (NAD(P)H-Glo luminescence); conditions: for MTHFD1/MTHFD2 IC50 ratio: selectivity of MTHFD2 inhibition over MTHFD1, band
T2 sequence (P13995 36-350): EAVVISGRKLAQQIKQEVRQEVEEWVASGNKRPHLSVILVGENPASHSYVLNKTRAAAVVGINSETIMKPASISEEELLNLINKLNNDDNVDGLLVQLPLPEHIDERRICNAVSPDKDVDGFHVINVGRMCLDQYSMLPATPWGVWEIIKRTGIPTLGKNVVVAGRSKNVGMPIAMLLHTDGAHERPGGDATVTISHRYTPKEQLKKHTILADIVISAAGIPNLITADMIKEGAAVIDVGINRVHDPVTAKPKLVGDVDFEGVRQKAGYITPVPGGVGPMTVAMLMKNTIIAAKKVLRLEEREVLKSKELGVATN

| SMILES | IC50 [1] | IC50 [2] | MTHFD1/MTHFD2 IC50 ratio [2] |
| --- | --- | --- | --- |
| Cc1c(N2CCN3CCOC[C@H]3C2)ccc2c3c(c(=O)oc12)CN(C(=O)c1ccc(C(=O)NS(=O)(=O)N2CCCC2)c(OC2CCC2)c1)CC3 [Example 19, (R)-2-cyclobutoxy-4-(8-(hexahydropyrazino[2,1-c][1,4]oxazin-8(1H)-yl)-7-methyl-5-oxo-1,3,4,5-tetrahydro-2H-chromeno[3,4-c]pyridine-3-carbonyl)-N-(pyrrolidin-1-ylsulfonyl)benzamide] | 100 to 1000 nM | 100 to 1000 nM | F (<3) |
| CCCOc1c(C(=O)NS(=O)(=O)N2CCCC2)ccc(C(=O)N2CCc3c(c(=O)oc4c(C)c(N5CCN(C)[C@@H](COC)C5)cc(C)c34)C2)c1F [Example 205, (R)-3-fluoro-4-(8-(3-(methoxymethyl)-4-methylpiperazin-1-yl)-7,10-dimethyl-5-oxo-1,3,4,5-tetrahydro-2H-chromeno[3,4-c]pyridine-3-carbonyl)-2-propoxy-N-(pyrrolidin-1-ylsulfonyl)benzamide] | 10 to 100 nM | 10 to 100 nM | G (^ 3 to 9.0) |
| COC[C@H]1CN(c2cc(C)c3c4c(c(=O)oc3c2C)CN(C(=O)c2ccc(C(=O)NS(=O)(=O)N(C)C)c(N(C)C3CC3)c2)CC4)CCN1C [Example 84, (R)-2-(cyclopropyl(methyl)amino)-N-(N,N-dimethylsulfamoyl)-4-(8-(3-(methoxymethyl)-4-methylpiperazin-1-yl)-7,10-dimethyl-5-oxo-1,3,4,5-tetrahydro-2H-chromeno[3,4-c]pyridine-3-carbonyl)benzamide] | 10 to 100 nM | 1 to 10 nM | G (^ 3 to 9.0) |
| COC[C@H]1CN(c2ccc3c4c(c(=O)oc3c2C)CN(C(=O)c2ccc(C(=O)NS(=O)(=O)C3(C)CC3)c(O[C@@H]3C[C@@H]5C[C@@H]5C3)c2F)CC4)CCN1C [Example 59, 2-(((1R,3r,5S)-bicyclo[3.1.0]hexan-3-yl)oxy)-3-fluoro-4-(8-((R)-3-(methoxymethyl)-4-methylpiperazin-1-yl)-7-methyl-5-oxo-1,3,4,5-tetrahydro-2H-chromeno[3,4-c]pyridine-3-carbonyl)-N-((1-methylcyclopropyl)sulfonyl)benzamide] | 1 to 10 nM | 1 to 10 nM | F (<3) |
| COC[C@H]1CN(c2cc(C)c3c4c(c(=O)oc3c2C)CN(C(=O)c2ccc(C(=O)NS(=O)(=O)N(C)C)c(N3CCC[C@@H]3C)c2)CC4)CCN1C [Example 103, N-(N,N-dimethylsulfamoyl)-4-(8-((R)-3-(methoxymethyl)-4-methylpiperazin-1-yl)-7,10-dimethyl-5-oxo-1,3,4,5-tetrahydro-2H-chromeno[3,4-c]pyridine-3-carbonyl)-2-((S)-2-methylpyrrolidin-1-yl)benzamide] | 1 to 10 nM | 1 to 10 nM | G (^ 3 to 9.0) |
| CCOc1c(C(=O)NS(=O)(=O)N2CCCCC2)ccc(C(=O)N2CCc3c(c(=O)oc4c(C)c(N5CCN(C)[C@@H](COC)C5)cc(C)c34)C2)c1F [Example 197, (R)-2-ethoxy-3-fluoro-4-(8-(3-(methoxymethyl)-4-methylpiperazin-1-yl)-7,10-dimethyl-5-oxo-1,3,4,5-tetrahydro-2H-chromeno[3,4-c]pyridine-3-carbonyl)-N-(piperidin-1-ylsulfonyl)benzamide] | 10 to 100 nM | 10 to 100 nM | G (^ 3 to 9.0) |
| COC[C@H]1CN(c2ccc3c4c(c(=O)oc3c2C)CN(C(=O)c2ccc(C(=O)NS(=O)(=O)N3CCCC3)c(OC3CCC3)c2F)CC4)CCN1C1CC1 [Example 173, (R)-2-cyclobutoxy-4-(8-(4-cyclopropyl-3-(methoxymethyl)piperazin-1-yl)-7-methyl-5-oxo-1,3,4,5-tetrahydro-2H-chromeno[3,4-c]pyridine-3-carbonyl)-3-fluoro-N-(pyrrolidin-1-ylsulfonyl)benzamide] | 1000 to 5000 nM | 1000 to 5000 nM | F (<3) |
| COC[C@H]1CN(c2cc(C)c3c4c(c(=O)oc3c2C)CN(C(=O)c2ccc(C(=O)NS(=O)(=O)N3CCCC3)cc2Cl)CC4)CCN1C [Example 184, (R)-3-chloro-4-(8-(3-(methoxymethyl)-4-methylpiperazin-1-yl)-7,10-dimethyl-5-oxo-1,3,4,5-tetrahydro-2H-chromeno[3,4-c]pyridine-3-carbonyl)-N-(pyrrolidin-1-ylsulfonyl)benzamide] | 1000 to 5000 nM | 100 to 1000 nM | J (>30) |
| COC[C@H]1CN(c2cc(C)c3c4c(c(=O)oc3c2C)CN(C(=O)c2ccc(C(=O)NS(=O)(=O)N3CCC(F)CC3)c(OC)c2F)CC4)CCN1C [Example 240] | 100 to 1000 nM | 10 to 100 nM | H (>9.0 to 30) |
| COC[C@H]1CN(c2cc(C)c3c4c(c(=O)oc3c2C)CN(C(=O)c2ccc(C(=O)NS(=O)(=O)C3(C)CC3)c(O[C@H]3C[C@@H]5C[C@@H]5C3)c2F)CC4)CCN1C [Example 68, 2-(((1R,3s,5S)-bicyclo[3.1.0]hexan-3-yl)oxy)-3-fluoro-4-(8-((R)-3-(methoxymethyl)-4-methylpiperazin-1-yl)-7,10-dimethyl-5-oxo-1,3,4,5-tetrahydro-2H-chromeno[3,4-c]pyridine-3-carbonyl)-N-((1-methylcyclopropyl)sulfonyl)benzamide] | 1 to 10 nM | 1 to 10 nM | F (<3) |
| COC[C@H]1CN(c2cc(C)c3c4c(c(=O)oc3c2C)CN(C(=O)c2ccc(C(=O)NS(=O)(=O)N(C)C)c(N3CCC(F)(F)C3)c2)CC4)CCN1C [Example 82, (R)-2-(3,3-difluoropyrrolidin-1-yl)-N-(N,N-dimethylsulfamoyl)-4-(8-(3-(methoxymethyl)-4-methylpiperazin-1-yl)-7,10-dimethyl-5-oxo-1,3,4,5-tetrahydro-2H-chromeno[3,4-c]pyridine-3-carbonyl)benzamide] | 10 to 100 nM | 1 to 10 nM |  |
| COC[C@H]1CN(c2ccc3c4c(c(=O)oc3c2C)CN(C(=O)c2cc(Cl)c(C(=O)NS(=O)(=O)N(C)C)c(N3CC5CC5C3)c2)CC4)CCN1C (stereo partly drawn) [Example 33, 2-(3-azabicyclo[3.1.0]hexan-3-yl)-6-chloro-N-(N,N-dimethylsulfamoyl)-4-(8-((R)-3-(methoxymethyl)-4-methylpiperazin-1-yl)-7-methyl-5-oxo-1,3,4,5-tetrahydro-2H-chromeno[3,4-c]pyridine-3-carbonyl)benzamide] | 100 to 1000 nM | 10 to 100 nM | H (>9.0 to 30) |
| COC[C@H]1CN(c2cc(C)c3c4c(c(=O)oc3c2C)CN(C(=O)c2cc(F)c(C(=O)NS(=O)(=O)N(C)C)c(N3CC5CC5C3)c2)CC4)CCN1C (stereo partly drawn) [Example 28, 2-(3-azabicyclo[3.1.0]hexan-3-yl)-N-(N,N-dimethylsulfamoyl)-6-fluoro-4-(8-((R)-3-(methoxymethyl)-4-methylpiperazin-1-yl)-7,10-dimethyl-5-oxo-1,3,4,5-tetrahydro-2H-chromeno[3,4-c]pyridine-3-carbonyl)benzamide] | 1 to 10 nM | 1 to 10 nM | F (<3) |
| COC[C@H]1CN(c2cc(C)c3c4c(c(=O)oc3c2C)CN(C(=O)c2ccc(C(=O)NS(=O)(=O)N3CCCC3)c(O[C@H]3C[C@@H]5C[C@@H]5C3)c2F)CC4)CCN1C [Example 66, 2-(((1R,3s,5S)-bicyclo[3.1.0]hexan-3-yl)oxy)-3-fluoro-4-(8-((R)-3-(methoxymethyl)-4-methylpiperazin-1-yl)-7,10-dimethyl-5-oxo-1,3,4,5-tetrahydro-2H-chromeno[3,4-c]pyridine-3-carbonyl)-N-(pyrrolidin-1-ylsulfonyl)benzamide] | 1 to 10 nM | 1 to 10 nM | F (<3) |
| COC[C@H]1CN(c2cc(C)c3c4c(c(=O)oc3c2C)CN(C(=O)c2cc(N(C)C)c(C(=O)NS(=O)(=O)C3(C)CC3)cc2C(F)(F)F)CC4)CCN1C [Example 159, (R)-2-(dimethylamino)-4-(8-(3-(methoxymethyl)-4-methylpiperazin-1-yl)-7,10-dimethyl-5-oxo-1,3,4,5-tetrahydro-2H-chromeno[3,4-c]pyridine-3-carbonyl)-N-((1-methylcyclopropyl)sulfonyl)-5-(trifluoromethyl)benzamide] | > 5000 nM | 100 to 1000 nM | H (>9.0 to 30) |
| COC[C@H]1CN(c2cc(C)c3c4c(c(=O)oc3c2C)CN(C(=O)c2ccc(C(=O)NS(=O)(=O)C3(C)CC3)c(OC3C[C@@H]5C[C@@H]5C3)c2F)CC4)CCN1C (stereo partly drawn) [Example 37, 2-(((1R,3r,5S)-bicyclo[3.1.0]hexan-3-yl)oxy)-3-fluoro-4-(8-((R)-3-(methoxymethyl)-4-methylpiperazin-1-yl)-7,10-dimethyl-5-oxo-1,3,4,5-tetrahydro-2H-chromeno[3,4-c]pyridine-3-carbonyl)-N-((1-methylcyclopropyl)sulfonyl)benzamide] | 1 to 10 nM | 1 to 10 nM | F (<3) |
